Source: patent publication US11261201B2 (priority 2018, dated 2022)
Converted amounts (≈) assume the structure as drawn. Counter-ions that a name gives are not always drawn. Like-named read-outs stand apart in the source and are kept apart here.

Columns and labels:
H37RvMA = experiment: Tuberculosis Alamar Blue/Resazurin assay (MIC); format: cell-based; settings: read-out: WT H37Rv MTB Activity
E. coli = experiment: Gram negative MIC protocol (OD600, LB, 24 h); settings: for MIC: Escherichia coli
Procedure: (§1) Overnight bacterial cultures were grown in LB with no added antibiotics at 37° C. with shaking. A 1:1000 dilution of these cultures into LB was exposed to concentration gradients of compounds in 96-well plates (100 μL per well assay volume). Resulting plates were incubated at 37° C. for 24 h without shaking, and OD600 was measured at the end of the incubation. MICs were determined as the lowest concentrations at which OD600 remained at baseline.

A. baumannii = experiment: Gram negative MIC protocol (OD600, LB, 24 h); settings: for MIC: Acinetobacter baumannii
Procedure: as §1

[1] = Mycobacterium tuberculosis, H37RV, WT H37Rv MTB
[2] = read-out: MIC E. coli delta-TolC LB Media, E. coli delta-TolC, LB media, OD600
[3] = read-out: MIC WT E. coli LB Media, WT E. coli, LB media, OD600
[4] = read-out: MIC A. baumannii LB Media, A. baumannii, LB media, 24 h, OD600
[5] = read-out: MIC E. coli delta-TolC LB Media, E. coli delta-TolC strain, LB media, 24 h, OD600
[6] = read-out: MIC WT E. coli LB Media, wild-type E. coli, LB media, 24 h, OD600
[7] = Mycobacterium tuberculosis, H37RV

Structure (SMILES)	MIC (H37RvMA; [1])	MIC (E. coli; [2])	MIC (E. coli; [3])	MIC (A. baumannii; [4])	MIC (E. coli; [5])	MIC (E. coli; [6])	also measured
CNc1cccc(CNCCC2CCCCC2)c1 [B406, 3-(((2-cyclohexylethyl)amino)methyl)-N-methylaniline]	150 µM (≈ 37 µg/mL)	> 150 µM	> 150 µM	> 150 µM	–	–	–
CC(CC1CCCCC1)NCc1ccccc1OCCN1CCOCC1 (stereo not shown) [B250]	> 150 µM	–	–	> 150 µM	12 µM (≈ 4.33 µg/mL)	> 150 µM	–
C1=C(CCNCc2ccccc2)CCC1 [B39]	> 150 µM	> 150 µM	> 150 µM	> 150 µM	–	–	–
c1ccc(CNCCC2CCC2)cc1 [B30]	> 150 µM	> 150 µM	> 150 µM	> 150 µM	–	–	–
CC(CC1CCCCC1)NCc1ccccc1OCC1CCCO1 (stereo not shown) [B297]	> 150 µM	–	–	150 µM (≈ 49.7 µg/mL)	7 µM (≈ 2.32 µg/mL)	> 150 µM	–
CC(CC1CCCCC1)NCc1ccccc1CCS(N)(=O)=O (stereo not shown) [B451, 2-(2-(((1-cyclohexylpropan-2-yl)amino)methyl)phenyl)ethane-1-sulfonamide]	> 150 µM	4 µM (≈ 1.35 µg/mL)	55 µM (≈ 18.6 µg/mL)	150 µM (≈ 50.8 µg/mL)	–	–	–
OC(CNCc1ccccc1)C1CCCCC1 (stereo not shown) [B172]	–	96 µM (≈ 22.4 µg/mL)	170 µM (≈ 39.7 µg/mL)	–	–	–	MIC (H37RvMA; [7]): > 150 µM; MIC (A. baumannii; read-out: MIC A. baumannii LB Media): > 300 µM
c1ccc(-c2cccc3ccccc23)c(CNCCC2CCCCC2)c1 [B238, 2-cyclohexyl-N-(2-(naphthalen-1-yl)benzyl)ethanamine hydrochloride]	55 µM	–	–	54 µM	10 µM	> 300 µM	–
CC(CC1CCCCC1)NCc1ccccc1OCC(=O)NCC1CCCO1 (stereo not shown) [B336]	> 150 µM	–	–	> 150 µM	33 µM (≈ 12.8 µg/mL)	> 150 µM	–
CC(CC1CCCCC1)NCc1ccccc1OCc1ncnn1C (stereo not shown) [B248]	> 150 µM	–	–	> 150 µM	20 µM (≈ 6.85 µg/mL)	> 150 µM	–
c1ccc(CNCCN2CCc3ccccc3C2)cc1 [B129]	> 150 µM	> 150 µM	> 150 µM	> 150 µM	–	–	–
CC(CC1CCCCC1)NCc1ccccc1OCCCn1c(=O)[nH]c2ccccc21 (stereo not shown) [B247]	> 150 µM	–	–	91 µM (≈ 38.4 µg/mL)	2 µM (≈ 0.843 µg/mL)	150 µM (≈ 63.2 µg/mL)	–
Cc1noc(C)c1CC(C)NCc1ccccc1 (stereo not shown) [B26]	–	> 150 µM	> 150 µM	> 150 µM	–	–	MIC (H37RvMA; [7]): > 150 µM
CC(C)(C)OC(=O)N1CCC(CCNCc2ccccc2)CC1 [B216, tert-butyl 4-(2-(benzylamino)ethyl) piperidine-1-carboxylate]	> 150 µM	–	–	> 300 µM	> 300 µM	> 300 µM	–
OC1(CCNCc2ccccc2)CCCCC1Cl (stereo not shown) [B188]	> 150 µM	> 300 µM	> 300 µM	> 300 µM	–	–	–
CC(CC1CCCCC1)NCc1cccc2ccn(CCO)c12 (stereo not shown) [B442, 2-(7-(((1-cyclohexylpropan-2-yl)amino)methyl)-1H-indol-1-yl)ethan-1-ol hydrochloride]	150 µM	150 µM	> 150 µM	> 150 µM	–	–	–
NS(=O)(=O)c1ccccc1CNCCC1CCCCC1 [B345]	> 150 µM	–	–	33 µM (≈ 9.78 µg/mL)	20 µM (≈ 5.93 µg/mL)	> 150 µM	–
CCN1CC(COc2ccccc2CNCCC2=CCCCC2)OC1=O (stereo not shown) [B368]	> 150 µM	–	–	> 150 µM	20 µM (≈ 7.17 µg/mL)	> 150 µM	–
CC1CCCN(C(=O)COc2ccccc2CNC(C)CC2CCCCC2)C1 (stereo not shown) [B273]	150 µM (≈ 58 µg/mL)	–	–	> 150 µM	4 µM (≈ 1.55 µg/mL)	> 150 µM	–
COc1cc(CC(C)NCc2ccccc2)ccn1 (stereo not shown) [B85]	–	> 150 µM	> 150 µM	> 150 µM	–	–	MIC (H37RvMA; [7]): > 150 µM
CC(CC1CCCCC1)NCc1ccccc1OCC(=O)N1CCNC1=O (stereo not shown) [B347]	> 150 µM	–	–	> 150 µM	4 µM (≈ 1.49 µg/mL)	150 µM (≈ 56 µg/mL)	–

Structure (SMILES)	MIC (H37RvMA; [1])	MIC (E. coli; [2])	MIC (E. coli; [3])	MIC (A. baumannii; [4])	MIC (E. coli; [5])	MIC (E. coli; [6])	also measured
COc1ccc(CC(C)NCc2ccccc2)cn1 (stereo not shown) [B68]	–	> 150 µM	> 150 µM	> 150 µM	–	–	MIC (H37RvMA; [7]): > 150 µM
c1ccc(CNCCc2ccc3[nH]ncc3c2)cc1 [B115]	> 150 µM	> 150 µM	> 150 µM	> 150 µM	–	–	–
CC(CC1CCCCC1)NCc1ccccc1OCc1ncccn1 (stereo not shown) [B310]	> 150 µM	–	–	> 150 µM	55 µM (≈ 18.7 µg/mL)	> 150 µM	–
CC(CC1CCCCC1)NCc1ccccc1OCC1CN(C)C(=O)O1 (stereo not shown) [B372]	> 150 µM	–	–	> 150 µM	5 µM (≈ 1.8 µg/mL)	150 µM (≈ 54.1 µg/mL)	–
CCCC(C)NCc1ccccc1 (stereo not shown) [B16]	> 150 µM	> 150 µM	> 150 µM	> 150 µM	–	–	–
O=C(O)C(CC1CCCCC1)NCc1ccccc1 (stereo not shown) [B204, 2-(benzylamino)-3-cyclohexylpropanoic acid]	–	–	–	> 300 µM	> 300 µM	> 300 µM	MIC (H37RvMA; WT H37Rv MTB): >150 µM
c1ccc(CNCCC2COc3ccccc3O2)cc1 (stereo not shown) [B46]	> 150 µM	> 150 µM	> 150 µM	> 150 µM	–	–	–
O=C1OC(COc2ccccc2CNCCC2=CCCCC2)CN1C1CC1 (stereo not shown) [B370]	> 150 µM	–	–	> 150 µM	12 µM (≈ 4.45 µg/mL)	> 150 µM	–
CC(CC1CCCCC1)NCc1cccc2ccn(Cc3ccccc3)c12 (stereo not shown) [B423, N-((1-benzyl-1H-indol-7-yl)methyl)-1-cyclohexylpropan-2-amine]	150 µM (≈ 54.1 µg/mL)	55 µM (≈ 19.8 µg/mL)	> 150 µM	> 150 µM	–	–	–
CC(NCc1ccccc1)C1C(C)(C)C1(C)C (stereo not shown) [B77]	> 150 µM	> 150 µM	> 150 µM	> 150 µM	–	–	–
c1ccc(CNCCc2ccc3cn[nH]c3c2)cc1 [B58]	> 150 µM	> 150 µM	> 150 µM	> 150 µM	–	–	–
CC1CCCC(CCNCc2ccccc2)C1 (stereo not shown) [B179]	150 µM (≈ 34.7 µg/mL)	230 µM (≈ 53.2 µg/mL)	> 300 µM	> 300 µM	–	–	–
c1ccc(CNCC2C3CCc4ccccc4C32)cc1 (stereo not shown) [B45]	91 µM (≈ 24 µg/mL)	> 150 µM	> 150 µM	> 150 µM	–	–	–
COC(=O)c1cc(COc2ccccc2CNC(C)CC2CCCCC2)oc1C (stereo not shown) [B272]	150 µM (≈ 59.9 µg/mL)	–	–	> 150 µM	12 µM (≈ 4.79 µg/mL)	> 150 µM	–
Clc1cccc(CNCCC2CCCCC2)c1 [B351]	> 150 µM	–	–	> 150 µM	> 150 µM	> 150 µM	–
Cc1cccc(C)c1CNCCC1=CCCCC1 [B73]	> 150 µM	> 150 µM	> 150 µM	> 150 µM	–	–	–
C1=C(CCNCc2ccncc2)CCCC1 [B15]	–	–	–	–	–	–	MIC (H37RvMA; WT H37Rv MTB): >150 µM; MIC E. coli delta-TolC LB Media (E. coli; E. coli delta-TolC, LB media, OD600): >150 µM; MIC WT E. coli LB Media (E. coli; WT E. coli, LB media, OD600): >150 µM; MIC A. baumannii LB Media (A. baumannii; A. baumannii, LB media, OD600): >150 µM
CCN(CC)CCOc1ccccc1CNC(C)CC1CCCCC1 (stereo not shown) [B249]	> 150 µM	–	–	> 150 µM	> 150 µM	> 150 µM	–
CCSCCOc1ccccc1CNC(C)CC1CCCCC1 (stereo not shown) [B314]	150 µM (≈ 50.3 µg/mL)	–	–	91 µM (≈ 30.5 µg/mL)	4 µM (≈ 1.34 µg/mL)	150 µM (≈ 50.3 µg/mL)	–
c1ccc(CNCCC2CCSCC2)cc1 [B332]	–	–	–	> 150 µM	> 150 µM	> 150 µM	–
O=C1Cc2ccccc2CN1CCC1CCCCC1 [B379]	–	–	–	> 150 µM	150 µM (≈ 38.6 µg/mL)	> 150 µM	–
